Measured values taken from ChEMBL document CHEMBL1152321, “Recent advances in the chemistry and biology of new generation taxoids” (J Nat Prod, 2009).

Experiments:
HT-29 = experiment: Cytotoxicity against human HT-29 cells after 72 hrs; type: functional, cell-based; settings: HT-29, 72 h
MCF7 [1] = experiment: Cytotoxicity against P-glycoprotein deficient wild type human MCF7 cells after 72 hrs; type: functional, cell-based; settings: MCF7, 72 h
[2] = Cytotoxicity against human LCC-6 cells expressing P-glycoprotein after 72 hrs; type: functional, cell-based; settings: LCC-6, 72 h
[3] = Cytotoxicity against P-glycoprotein deficient wild type human LCC-6 cells after 72 hrs; type: functional, cell-based; settings: LCC-6, 72 h
MCF7 [4] = experiment: Cytotoxicity against human MCF7 cells expressing P-glycoprotein after 72 hrs; type: functional, cell-based; settings: MCF7, 72 h
MCF7 [5] = experiment: Resistance factor, ratio of IC50 for human MCF7 cells expressing P-glycoprotein to IC50 for P-glycoprotein deficient wild type human MCF7 cells; type: functional
[6] = Resistance factor, ratio of IC50 for human LCC-6 cells expressing P-glycoprotein to IC50 for P-glycoprotein deficient wild type human LCC-6 cells; type: functional; design: reference not given here
NCI-H460 = experiment: Cytotoxicity against human H460 cells after 72 hrs; type: functional, cell-based; settings: NCI-H460, 72 h

Structure (SMILES) | IC50 (HT-29) [nM] | IC50 (MCF7 [1]) [nM] | IC50 [2] [nM] | IC50 [3] [nM] | IC50 (MCF7 [4]) [nM] | Ratio (MCF7 [5]) | Ratio [6] | IC50 (NCI-H460) [nM]
CC(=O)O[C@@]12CO[C@@H]1C[C@H](O)[C@@]1(C)C(=O)[C@H](OC(=O)N(C)C)C3=C(C)[C@@H](OC(=O)[C@H](O)[C@@H](NC(=O)OC(C)(C)C)C(F)(F)F)C[C@@](O)([C@@H](OC(=O)c4cccc(F)c4)[C@H]21)C3(C)C | 0.76 | 0.32 | 5.57 | 0.32 | 2.64 | 8.3 | 17 | 0.5
CCC(=O)O[C@H]1C(=O)[C@@]2(C)[C@H]([C@H](OC(=O)c3cccc(F)c3)[C@]3(O)C[C@H](OC(=O)[C@H](O)[C@@H](NC(=O)OC(C)(C)C)C(F)(F)F)C(C)=C1C3(C)C)[C@]1(OC(C)=O)CO[C@@H]1C[C@@H]2O | 1.15 | 0.68 | 4.27 | 0.82 | 3.78 | 5.6 | 5.2 | 0.59
CC(=O)O[C@@]12CO[C@@H]1C[C@H](O)[C@@]1(C)C(=O)[C@H](OC(=O)N(C)C)C3=C(C)[C@@H](OC(=O)[C@H](O)[C@@H](NC(=O)OC(C)(C)C)C(F)F)C[C@@](O)([C@@H](OC(=O)c4cccc(Cl)c4)[C@H]21)C3(C)C | 0.58 | 0.31 | 3.87 | 0.21 | 2.96 | 9.5 | 18 | 0.36
CCC(=O)O[C@H]1C(=O)[C@@]2(C)[C@H]([C@H](OC(=O)c3cccc(N=[N+]=[N-])c3)[C@]3(O)C[C@H](OC(=O)[C@H](O)[C@@H](NC(=O)OC(C)(C)C)C(F)(F)F)C(C)=C1C3(C)C)[C@]1(OC(C)=O)CO[C@@H]1C[C@@H]2O | 0.4 | 0.38 | 2.56 | 1.09 | 1.61 | 4.2 | 2.3 | 0.2
CCC(=O)O[C@H]1C(=O)[C@@]2(C)[C@H]([C@H](OC(=O)c3cccc(N=[N+]=[N-])c3)[C@]3(O)C[C@H](OC(=O)[C@H](O)[C@@H](NC(=O)OC(C)(C)C)C(F)F)C(C)=C1C3(C)C)[C@]1(OC(C)=O)CO[C@@H]1C[C@@H]2O | 0.37 | 0.32 | 1.15 | 0.39 | 0.96 | 3 | 2.9 | 0.27
CCC(=O)O[C@H]1C(=O)[C@@]2(C)[C@H]([C@H](OC(=O)c3cccc(OC)c3)[C@]3(O)C[C@H](OC(=O)[C@H](O)[C@@H](NC(=O)OC(C)(C)C)C(F)F)C(C)=C1C3(C)C)[C@]1(OC(C)=O)CO[C@@H]1C[C@@H]2O | 0.59 | 1.14 | – | 0.69 | 4.05 | – | – | 0.4
COC(=O)O[C@H]1C(=O)[C@@]2(C)[C@H]([C@H](OC(=O)c3cccc(F)c3)[C@]3(O)C[C@H](OC(=O)[C@H](O)[C@@H](NC(=O)OC(C)(C)C)C(F)(F)F)C(C)=C1C3(C)C)[C@]1(OC(C)=O)CO[C@@H]1C[C@@H]2O | 0.85 | 0.31 | 5.81 | 0.39 | 4.88 | 16 | 15 | 0.61
COc1cccc(C(=O)O[C@H]2[C@@H]3[C@]4(OC(C)=O)CO[C@@H]4C[C@H](O)[C@@]3(C)C(=O)[C@H](OC(=O)N(C)C)C3=C(C)[C@@H](OC(=O)[C@H](O)[C@@H](NC(=O)OC(C)(C)C)C(F)(F)F)C[C@]2(O)C3(C)C)c1 | 0.68 | 0.57 | 4.48 | 0.28 | 1.84 | 3.2 | 16 | 0.35
COc1cccc(C(=O)O[C@H]2[C@@H]3[C@]4(OC(C)=O)CO[C@@H]4C[C@H](O)[C@@]3(C)C(=O)[C@H](OC(C)=O)C3=C(C)[C@@H](OC(=O)[C@H](O)[C@@H](NC(=O)OC(C)(C)C)C(F)F)C[C@]2(O)C3(C)C)c1 | 0.52 | 0.34 | 5.57 | 0.26 | 4.16 | 12 | 21 | 0.38
CC(=O)O[C@H]1C(=O)[C@@]2(C)[C@H]([C@H](OC(=O)c3cccc(Cl)c3)[C@]3(O)C[C@H](OC(=O)[C@H](O)[C@@H](NC(=O)OC(C)(C)C)C(F)F)C(C)=C1C3(C)C)[C@]1(OC(C)=O)CO[C@@H]1C[C@@H]2O | 1.94 | 0.4 | 5.8 | 0.31 | 6.48 | 16 | 19 | 0.49
CC(=O)O[C@@]12CO[C@@H]1C[C@H](O)[C@@]1(C)C(=O)[C@H](OC(=O)N(C)C)C3=C(C)[C@@H](OC(=O)[C@H](O)[C@@H](NC(=O)OC(C)(C)C)C(F)(F)F)C[C@@](O)([C@@H](OC(=O)c4cccc(Cl)c4)[C@H]21)C3(C)C | 0.45 | 0.12 | 2.55 | 0.27 | 1.02 | 8.5 | 9.4 | 0.42
COC(=O)O[C@H]1C(=O)[C@@]2(C)[C@H]([C@H](OC(=O)c3cccc(N=[N+]=[N-])c3)[C@]3(O)C[C@H](OC(=O)[C@H](O)[C@@H](NC(=O)OC(C)(C)C)C(F)(F)F)C(C)=C1C3(C)C)[C@]1(OC(C)=O)CO[C@@H]1C[C@@H]2O | 0.4 | 0.47 | 4 | 1.09 | 2.92 | 6.2 | 3.7 | 0.2
CC(=O)O[C@H]1C(=O)[C@@]2(C)[C@H]([C@H](OC(=O)c3cccc(N=[N+]=[N-])c3)[C@]3(O)C[C@H](OC(=O)[C@H](O)[C@@H](NC(=O)OC(C)(C)C)C(F)F)C(C)=C1C3(C)C)[C@]1(OC(C)=O)CO[C@@H]1C[C@@H]2O | 0.57 | 0.32 | 1.57 | 0.22 | 1.68 | 5.3 | 7.1 | 0.48
CC(=O)O[C@@]12CO[C@@H]1C[C@H](O)[C@@]1(C)C(=O)[C@H](OC(=O)N(C)C)C3=C(C)[C@@H](OC(=O)[C@H](O)[C@@H](NC(=O)OC(C)(C)C)C(F)F)C[C@@](O)([C@@H](OC(=O)c4cccc(N=[N+]=[N-])c4)[C@H]21)C3(C)C | 0.4 | 0.37 | 1.69 | 0.29 | 1.44 | 3.9 | 5.8 | 0.52
COc1cccc(C(=O)O[C@H]2[C@@H]3[C@]4(OC(C)=O)CO[C@@H]4C[C@H](O)[C@@]3(C)C(=O)[C@H](OC(C)=O)C3=C(C)[C@@H](OC(=O)[C@H](O)[C@@H](NC(=O)OC(C)(C)C)C(F)(F)F)C[C@]2(O)C3(C)C)c1 | 0.69 | 0.32 | 3.99 | 0.33 | 8.8 | 28 | 12 | 0.38
CC(=O)O[C@H]1C(=O)[C@@]2(C)[C@H]([C@H](OC(=O)c3cccc(N=[N+]=[N-])c3)[C@]3(O)C[C@H](OC(=O)[C@H](O)[C@@H](NC(=O)OC(C)(C)C)C(F)(F)F)C(C)=C1C3(C)C)[C@]1(OC(C)=O)CO[C@@H]1C[C@@H]2O | 0.5 | 0.47 | 4 | 1.18 | 3.85 | 8.2 | 3.4 | 0.2
CC(=O)O[C@@]12CO[C@@H]1C[C@H](O)[C@@]1(C)C(=O)[C@H](OC(=O)N(C)C)C3=C(C)[C@@H](OC(=O)[C@H](O)[C@@H](NC(=O)OC(C)(C)C)C(F)(F)F)C[C@@](O)([C@@H](OC(=O)c4cccc(N=[N+]=[N-])c4)[C@H]21)C3(C)C | 0.5 | 0.47 | 3.52 | 1.27 | 2.61 | 5.6 | 2.8 | 0.3
COC(=O)O[C@H]1C(=O)[C@@]2(C)[C@H]([C@H](OC(=O)c3cccc(Cl)c3)[C@]3(O)C[C@H](OC(=O)[C@H](O)[C@@H](NC(=O)OC(C)(C)C)C(F)F)C(C)=C1C3(C)C)[C@]1(OC(C)=O)CO[C@@H]1C[C@@H]2O | 0.29 | 0.26 | 1.82 | 0.13 | 2.08 | 8 | 14 | 0.25
CC(=O)O[C@H]1C(=O)[C@@]2(C)[C@H]([C@H](OC(=O)c3cccc(F)c3)[C@]3(O)C[C@H](OC(=O)[C@H](O)[C@@H](NC(=O)OC(C)(C)C)C(F)(F)F)C(C)=C1C3(C)C)[C@]1(OC(C)=O)CO[C@@H]1C[C@@H]2O | 1.11 | 0.45 | 5.93 | 0.38 | 5.58 | 13 | 16 | 0.49
COC(=O)O[C@H]1C(=O)[C@@]2(C)[C@H]([C@H](OC(=O)c3cccc(OC)c3)[C@]3(O)C[C@H](OC(=O)[C@H](O)[C@@H](NC(=O)OC(C)(C)C)C(F)F)C(C)=C1C3(C)C)[C@]1(OC(C)=O)CO[C@@H]1C[C@@H]2O | 0.44 | 0.81 | 10.2 | 1.03 | 6.59 | 8.1 | 9.9 | 0.3
CC(=O)O[C@@]12CO[C@@H]1C[C@H](O)[C@@]1(C)C(=O)[C@H](OC(=O)N(C)C)C3=C(C)[C@@H](OC(=O)[C@H](O)[C@@H](NC(=O)OC(C)(C)C)C(F)F)C[C@@](O)([C@@H](OC(=O)c4cccc(F)c4)[C@H]21)C3(C)C | 0.35 | 0.52 | 10.6 | 0.69 | 8.13 | 16 | 15 | 0.2
